From US6921835B2, “Cyclic amino acids and derivatives thereof useful as pharmaceutical agents” (Warner Lambert Company, priority 1997, dated 2005)
Where a name gives a salt, the structure may show the parent alone.

Molecular target: T1, α2δ subunit (Sus scrofa, UniProt A0A287BIN3)
T1 construct: the α2δ subunit derived from porcine brain tissue was used; from tissue; host or cells: porcine brain tissue
Test: radioligand binding assay using [3H]gabapentin and the α2δ subunit
Set-up: species or system porcine
Details: not given

T1 sequence (A0A287BIN3 25-1109): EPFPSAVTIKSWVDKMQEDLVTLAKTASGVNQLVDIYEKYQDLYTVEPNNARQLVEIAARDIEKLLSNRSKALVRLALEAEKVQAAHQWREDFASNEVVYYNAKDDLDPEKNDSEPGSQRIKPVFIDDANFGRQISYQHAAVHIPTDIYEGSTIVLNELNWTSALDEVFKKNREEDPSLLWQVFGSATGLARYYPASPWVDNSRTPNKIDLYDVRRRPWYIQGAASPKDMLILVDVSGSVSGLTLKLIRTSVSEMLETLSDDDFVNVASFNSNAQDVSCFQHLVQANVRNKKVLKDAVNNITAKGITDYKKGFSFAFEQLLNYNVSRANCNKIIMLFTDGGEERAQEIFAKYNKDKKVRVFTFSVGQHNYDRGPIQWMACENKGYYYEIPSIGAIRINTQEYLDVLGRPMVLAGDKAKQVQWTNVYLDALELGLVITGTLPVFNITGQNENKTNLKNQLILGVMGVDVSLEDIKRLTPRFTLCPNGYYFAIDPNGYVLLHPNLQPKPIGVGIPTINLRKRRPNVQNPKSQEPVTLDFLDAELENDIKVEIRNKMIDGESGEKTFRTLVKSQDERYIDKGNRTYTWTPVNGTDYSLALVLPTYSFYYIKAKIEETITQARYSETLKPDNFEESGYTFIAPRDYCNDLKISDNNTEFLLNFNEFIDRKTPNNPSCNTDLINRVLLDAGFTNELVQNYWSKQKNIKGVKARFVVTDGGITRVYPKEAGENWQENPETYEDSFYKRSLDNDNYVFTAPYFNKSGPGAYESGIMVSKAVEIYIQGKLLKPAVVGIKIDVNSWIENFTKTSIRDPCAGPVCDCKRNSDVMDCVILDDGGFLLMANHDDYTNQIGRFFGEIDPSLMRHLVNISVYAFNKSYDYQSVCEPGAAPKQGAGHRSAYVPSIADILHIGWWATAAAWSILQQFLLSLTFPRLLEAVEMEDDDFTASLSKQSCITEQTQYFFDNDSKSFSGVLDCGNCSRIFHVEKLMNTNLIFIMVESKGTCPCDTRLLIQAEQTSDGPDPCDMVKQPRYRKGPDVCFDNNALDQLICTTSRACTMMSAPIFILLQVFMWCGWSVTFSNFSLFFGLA

Compound	IC50 [µM]
NCC1(CC(=O)O)CC(Cc2ccccc2)C1 (mixture of isomers) [(cis/trans)-(1-Aminomethyl-3-benzyl-cyclobutyl)-acetic acid hydrochloride]	> 10
C[C@@H]1CCC(CN)(CC(=O)O)C1 (mixture of isomers) [(cis/trans)-(3R)-(1-Aminomethyl-3-methyl-cyclopentyl)-acetic acid hydrochloride]	0.088
C[C@@H]1CC(CN)(CC(=O)O)C[C@H]1C.Cl (racemic) [(±)-(trans)-(1-Aminomethyl-3,4-dimethyl-cyclopentyl)-acetic acid hydrochloride]	0.034
Cl.NCC1(CC(=O)O)CCC1 [(1-Aminomethyl-cyclobutyl)-acetic acid hydrochloride]	0.598
C[C@@H]1CC(CN)(CC(=O)O)C[C@H]1C [(3R,4R)-(1-Aminomethyl-3,4-dimethyl-cyclopentyl)-acetic acid hydrochloride]	1
C[C@H]1CC(CN)(CC(=O)O)C[C@@H]1C.Cl [(3S,4S)-(1-Aminomethyl-3,4-dimethyl-cyclopentyl)-acetic acid hydrochloride]	0.022

Same assay, conditions: read-out: IC50 (μM) at α2δ binding site

Compound	IC50 [µM]
C[C@@H]1C[C@](CN)(CC(=O)O)C[C@@H]1C [(1α,3β,4β)-(1-Aminomethyl-3,4-dimethyl-cyclopentyl)-acetic acid hydrochloride]	0.154

System: Carrageenan Induced Thermal Hyperalgesia in the Rat
Test: Carrageenan-induced thermal hyperalgesia in the rat (plantar test, paw withdrawal latency)
Assay type: in vivo
Details: 1 hr postdose, MPE = maximum possible effect, baseline before carrageenan
Description: Male Sprague-Dawley rats (180-250 g) were obtained from Bantin and Kingman, (Hull, U.K.). Animals were housed in groups of 6 to 10 under a 12 hour light/dark cycle (lights on at 7 hours, 0 minutes) with food and water ad libitum.
Carrageenan-induced Thermal Hyperalgesia in the Rat
Thermal hyperalgesia was assessed using the rat plantar test (Ugo Basile, Italy) following a modified method of Hargreaves, et al., 1988. Rats were habituated to the apparatus which consisted of three individual perspex boxes on an elevated glass table. A mobile radiant heat source located under the table was focused onto the desired paw and paw withdrawal latencies (PWL) recorded. PWL were taken 3 times for both hind paws of each animal, the mean of which represented baselines for right and left hind paws. At least 5 minutes were allowed between each PWL for an animal. The apparatus was calibrated to give a PWL of approximately 10 s. There was an automatic cutoff point of 20 s to prevent tissue damage. After baseline PWLs were determined, animals received an intraplantar injection of carrageenan (100 μL of 20 mg/mL) into the right hind paw. PWLs were reassessed following the same protocol as above 2-hour post-carrageenan (this time point represented the start of peak hyperalgesia) to ascertain that hyperalgesia had developed. Test compounds were administered orally (in a volume of 1 mL/kg) at 2.5 hours after carrageenan. PWLs were reassessed at various times after drug administration.

Compound	% MPE 1 hr postdose @ 30 mg/kg PO [% MPE]
NCC1(CC(=O)O)CC(Cc2ccccc2)C1 (mixture of isomers) [(cis/trans)-(1-Aminomethyl-3-benzyl-cyclobutyl)-acetic acid hydrochloride]	0
C[C@@H]1CCC(CN)(CC(=O)O)C1 (mixture of isomers) [(cis/trans)-(3R)-(1-Aminomethyl-3-methyl-cyclopentyl)-acetic acid hydrochloride]	67
C[C@@H]1CC(CN)(CC(=O)O)C[C@H]1C.Cl (racemic) [(±)-(trans)-(1-Aminomethyl-3,4-dimethyl-cyclopentyl)-acetic acid hydrochloride]	23
Cl.NCC1(CC(=O)O)CCC1 [(1-Aminomethyl-cyclobutyl)-acetic acid hydrochloride]	4
C[C@@H]1C[C@](CN)(CC(=O)O)C[C@@H]1C [(1α,3β,4β)-(1-Aminomethyl-3,4-dimethyl-cyclopentyl)-acetic acid hydrochloride]	−7
C[C@H]1CC(CN)(CC(=O)O)C[C@@H]1C.Cl [(3S,4S)-(1-Aminomethyl-3,4-dimethyl-cyclopentyl)-acetic acid hydrochloride]	109

Same assay, conditions: 2 hr postdose, MPE = maximum possible effect, baseline before carrageenan

Compound	% MPE 2 hr postdose @ 30 mg/kg PO [% MPE]
NCC1(CC(=O)O)CC(Cc2ccccc2)C1 (mixture of isomers) [(cis/trans)-(1-Aminomethyl-3-benzyl-cyclobutyl)-acetic acid hydrochloride]	0
C[C@@H]1CCC(CN)(CC(=O)O)C1 (mixture of isomers) [(cis/trans)-(3R)-(1-Aminomethyl-3-methyl-cyclopentyl)-acetic acid hydrochloride]	53
C[C@@H]1CC(CN)(CC(=O)O)C[C@H]1C.Cl (racemic) [(±)-(trans)-(1-Aminomethyl-3,4-dimethyl-cyclopentyl)-acetic acid hydrochloride]	72
Cl.NCC1(CC(=O)O)CCC1 [(1-Aminomethyl-cyclobutyl)-acetic acid hydrochloride]	4
C[C@@H]1C[C@](CN)(CC(=O)O)C[C@@H]1C [(1α,3β,4β)-(1-Aminomethyl-3,4-dimethyl-cyclopentyl)-acetic acid hydrochloride]	−2
C[C@H]1CC(CN)(CC(=O)O)C[C@@H]1C.Cl [(3S,4S)-(1-Aminomethyl-3,4-dimethyl-cyclopentyl)-acetic acid hydrochloride]	118

System: sound-induced tonic seizures in DBA/2 mice
Test: DBA2 test: prevention of audiogenic seizures in DBA/2 mice
Assay type: in vivo
Details: DBA/2 mouse, 1 hr postdose
Description: A Model of Anticonvulsant Efficacy and Protocol for DBA2 Test: Prevention of Audiogenic Seizures in DBA/2 Mice
All procedures were carried out in compliance with the NI/H Guide for the Care and Use of Laboratory Animals under a protocol approved by the Parke-Davis Animal Use Committee. Male DBA/2 mice, 3 to 4 weeks old, were obtained from Jackson Laboratories, Bar Harbour, Me. Immediately before anticonvulsant testing, mice were placed upon a wire mesh, 4 inches square suspended from a steel rod. The square was slowly inverted through 180 degrees and mice observed for 30 seconds. Any mouse falling from the wire mesh was scored as ataxic.
Mice were placed into an enclosed acrylic plastic chamber (21 cm height, approximately 30 cm diameter) with a high-frequency speaker (4 cm diameter) in the center of the top lid. An audio signal generator (Protek model B-810) was used to produce a continuous sinusoidal tone that was swept linearly in frequency between 8 kHz and 16 kHz once each 10 msec. The average sound pressure level (SPL) during stimulation was approximately 100 dB at the floor of the chamber. Mice were placed within the chamber and allowed to acclimatize for 1 minute. DBA/2 mice in the vehicle-treated group responded to the sound stimulus (applied until tonic extension occurred, or for a maximum of 60 seconds) with a characteristic seizure sequence consisting of wild running followed by clonic seizures, and later by tonic extension, and finally by respiratory arrest and death in 80% or more of the mice. In vehicle-treated mice, the entire sequence of seizures to respiratory arrest lasts approximately 15 to 20 seconds.
The incidence of all the seizure phases in the drug-treated and vehicle-treated mice was recorded, and the occurrence of tonic seizures were used for calculating anticonvulsant ED50 values by probit analysis. Mice were used only once for testing at each dose point. […] All drugs in the present study were dissolved in distilled water and given by oral gavage in a volume of 10 mL/kg of body weight. compounds that are insoluble will be suspended in 1% carboxymethocellulose. Doses are expressed as weight of the active drug moiety.

Compound	% Protected 1 hr postdose 30 mg/kg PO [%]
C[C@@H]1CCC(CN)(CC(=O)O)C1 (mixture of isomers) [(cis/trans)-(3R)-(1-Aminomethyl-3-methyl-cyclopentyl)-acetic acid hydrochloride]	100
C[C@@H]1CC(CN)(CC(=O)O)C[C@H]1C.Cl (racemic) [(±)-(trans)-(1-Aminomethyl-3,4-dimethyl-cyclopentyl)-acetic acid hydrochloride]	100
C[C@@H]1C[C@](CN)(CC(=O)O)C[C@@H]1C [(1α,3β,4β)-(1-Aminomethyl-3,4-dimethyl-cyclopentyl)-acetic acid hydrochloride]	100
C[C@H]1CC(CN)(CC(=O)O)C[C@@H]1C.Cl [(3S,4S)-(1-Aminomethyl-3,4-dimethyl-cyclopentyl)-acetic acid hydrochloride]	100

Same assay, conditions: DBA/2 mouse, 2 hour postdose

Compound	% Protected (2 hour postdose) 30 mg/kg PO
Cl.NCC1(CC(=O)O)CCC1 [(1-Aminomethyl-cyclobutyl)-acetic acid hydrochloride]	20 (2 hour postdose) %
